Reference: patent publication US20250195483A1, “SPIRO PIPERIDINE DERIVATIVES AS INHIBITORS OF APOL1 AND METHODS OF USING SAME” (Vertex Pharmaceuticals Incorporated, priority 2022, published 2025)

Each molecule was assayed against T1, APOL1 (Homo sapiens, UniProt O14791) (assay: MultiTox-Fluor Multiplex Cytotoxicity Assay, tet-inducible APOL1 T-REx-HEK293 cells (G0, G1 or G2 clone not specified for Table 20)). Conditions: tet-induced, 24 hours with compound, ratio of dead to live cells, read-out: IP50 (i.e., IC50 for cell proliferation).
T1 sequence (O14791 1-398): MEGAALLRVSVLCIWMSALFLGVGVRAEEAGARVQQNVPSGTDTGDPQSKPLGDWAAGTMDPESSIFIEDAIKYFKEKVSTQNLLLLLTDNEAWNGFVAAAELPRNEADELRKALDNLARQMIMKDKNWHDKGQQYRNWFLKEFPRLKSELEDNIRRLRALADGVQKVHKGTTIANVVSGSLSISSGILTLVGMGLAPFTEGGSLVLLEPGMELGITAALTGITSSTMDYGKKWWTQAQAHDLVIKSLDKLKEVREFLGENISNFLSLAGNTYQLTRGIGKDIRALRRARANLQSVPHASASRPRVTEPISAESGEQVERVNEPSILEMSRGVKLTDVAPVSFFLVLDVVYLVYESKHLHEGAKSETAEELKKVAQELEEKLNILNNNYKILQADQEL
Assay type: cell-based
Procedure: Human embryonic kidney (HEK293) cell lines containing a tet-inducible expression system (T-REx™; Invitrogen, Carlsbad, CA) and Adeno-associated virus site 1 pAAVS1-Puro-APOL1 G0 or pAAVS1-Puro-APOL1 G1 or pAAVS1-Puro-APOL1 G2 Clones G0 DC2.13, G1 DC3.25, and G2 DC4.44 were grown in a T-225 flask at ˜90% confluency in cell growth media (DMEM, 10% Tet-free FBS, 2 mM L-glutamine, 100 Units/mL penicillin-streptomycin, 5 μg/mL blasticidin S HCl, 1 μg/mL puromycin dihydrochloride). Cells were washed with DPBS and then trypsinized to dissociate from the flask. Media was used to quench the trypsin, cells were then pelleted at 200 g and resuspended in fresh cell assay media (DMEM, 2% Tet-free FBS, 2 mM L-glutamine, 100 Units/mL penicillin-streptomycin). Cells were counted and diluted to 1.17×10^6 cells/mL. 20 μL of cells (23,400/well) were dispensed in every well of a 384-well Poly-D-Lysine coated plate using the Multidrop dispenser. The plates were then incubated at room temperature for one hour.
Tetracycline is needed to induce APOL1 expression. 1 mg/mL tet stock in water was diluted to 250 ng/mL (5×) in cell assay media. 60 μL of cell assay media (no tet control) was dispensed in columns 1 and 24, and 60 μL of 5× tet in 384-PP-round bottom plate was dispensed in columns 2 to 23 with the Multidrop dispenser.
Assay ready plates from the Global Compound Archive were ordered using template 384_APOL1Cell_DR10n2_50 uM_v3. Compounds were dispensed at 200 nL in DMSO. The final top concentration was 10 μM with a 10 point 3-fold dilution in duplicate in the MultiTox assay.
20 μL was transferred from the 5× tet plate to the ARP and mixed, then 5 μL of 5× tet and the compounds were transferred to the cell plate and mixed using the Bravo. The cell plate was placed in the humidified 37° C. 5% CO2 incubator for 24 hours.
The MultiTox-Fluor Multiplex Cytotoxicity Assay was performed in accordance with the manufacturer's protocol. After cells were incubated with tet and compound for 24 hours, 25 μL of 1× MultiTox reagent was added to each well using the Multidrop dispenser; the plates were placed on a plate shaker (600 rpm) for 2 minutes, then centrifuged briefly and placed back in the 37° C. incubator for 30 minutes. The cell viability (excitation: 400 nm, emission: 486 nm) and cytotoxicity (excitation: 485 nm, emission: 535 nm) were read using the EnVision plate reader. A ratio of dead (cytotoxicity) to live (viability) cells was reported. Data was exported and analyzed in Genedata. Data was normalized using percent of control, no tet (100% viability), and 50 ng/mL tet treated (0% viability), and fit using Smart Fit settings in Genedata.
In the case of `NC(=O)C1OC2(CCN(Cc3cnn(-c4ccccc4)c3)CC2)c2cc(Cl)ccc21` (single isomer, unassigned) [Compound 193, 5-chloro-1′-[(1-phenylpyrazol-4-yl)methyl]spiro[1H-isobenzofuran-3,4′-piperidine]-1-carboxamide], the IC50 is reported as 50 to 500 nM. `NC(=O)C1OC2(CCN(Cc3cnn(-c4ccccc4)c3)CC2)c2cc(Cl)ccc21` (single isomer, unassigned) [Compound 194, 5-chloro-1′-[(1-phenylpyrazol-4-yl)methyl]spiro[1H-isobenzofuran-3,4′-piperidine]-1-carboxamide] was tested, and the IC50 was ≤ 50 nM. In the case of `Cc1ccc2c(c1)C1(CCN(Cc3cn(CCS(C)(=O)=O)nn3)[C@@H](C)C1)OC2(C)C` (single isomer, unassigned) [Compound 290, (2′S)-2′,3,3,6-tetramethyl-1′-((1-(2-(methylsulfonyl)ethyl)-1H-1,2,3-triazol-4-yl)methyl)-3H-spiro[isobenzofuran-1,4′-piperidine]], the IC50 is reported as ≥ 500 nM. In the case of `C[C@H]1CC2(CCN1Cc1cn(CCS(C)(=O)=O)nn1)OC(C)(C)c1ccc(Cl)cc12` (single isomer, unassigned) [Compound 291, (2′S)-5-chloro-1,1,2′-trimethyl-1′-[[1-(2-methylsulfonylethyl)triazol-4-yl]methyl]spiro[isobenzofuran-3,4′-piperidine]], the IC50 is reported as ≥ 500 nM. `C[C@H]1CC2(CCN1Cc1cnn(-c3ccccc3)c1)OC(C(N)=O)c1ccc(Cl)cc12` (single isomer, unassigned) [Compound 293, (2′S)-5-chloro-2′-methyl-1′-[(1-phenylpyrazol-4-yl)methyl]spiro[1H-isobenzofuran-3,4′-piperidine]-1-carboxamide] gave an IC50 of 50 to 500 nM. For `CNC(=O)C1OC2(CCN(Cc3cnn(-c4ccccc4)c3)[C@@H](C)C2)c2cc(Cl)ccc21` (single isomer, unassigned) [Compound 294, (2′S)-5-chloro-N,2′-dimethyl-1′-[(1-phenylpyrazol-4-yl)methyl]spiro[1H-isobenzofuran-3,4′-piperidine]-1-carboxamide], the IC50 was ≥ 500 nM. In the case of `C[C@H]1CC2(CCN1Cc1cnn(CCS(C)(=O)=O)c1)CC(O)c1ccc(Cl)cc12` (single isomer, unassigned) [Compound 306, (2′S)-5-chloro-2′-methyl-1′-[[1-(2-methylsulfonylethyl)pyrazol-4-yl]methyl]spiro[indane-3,4′-piperidine]-1-ol], the IC50 is reported as ≤ 50 nM. With `C[C@H]1CC2(CCN1Cc1cnn(CCS(C)(=O)=O)c1)CC(O)c1ccc(Cl)cc12` (single isomer, unassigned) [Compound 307, (2′S)-5-chloro-2′-methyl-1′-[[1-(2-methylsulfonylethyl)pyrazol-4-yl]methyl]spiro[indane-3,4′-piperidine]-1-ol] the IC50 was ≤ 50 nM. For `C[C@H]1CC2(CCN1Cc1cnn(CCS(C)(=O)=O)c1)C(=O)Nc1ccc(Cl)cc12` (stereo in doubt) [Compound 74, (2′S, 3R)-5-chloro-2′-methyl-1′-[[1-(2-methylsulfonylethyl)pyrazol-4-yl]methyl]spiro[indoline-3,4′-piperidine]-2-one], the IC50 was ≥ 500 nM. `CS(=O)(=O)CCn1cc(CN2CCC3(CC2)C(=O)Nc2ccc(Cl)cc23)cn1` [Compound 1, 5-chloro-1′-[[1-(2-methylsulfonylethyl)pyrazol-4-yl]methyl]spiro[indoline-3,4′-piperidine]-2-one] was tested, and the IC50 was 50 to 500 nM. In the case of `CC(CO)(CO)Cn1cc(CN2CCC3(CC2)C(=O)Nc2ccc(Cl)cc23)cn1` [Compound 2], the IC50 is reported as ≤ 50 nM. `Nc1ncc(CN2CCC3(CC2)C(=O)Nc2ccc(Cl)cc23)s1` [Compound 3] was tested, and the IC50 was 50 to 500 nM. `O=C1Nc2ccc(Cl)cc2C12CCN(Cc1cnn(CCO)c1)CC2` [Compound 4] was tested, and the IC50 was ≥ 500 nM. In the case of `COc1cncc(CN2CCC3(CC2)C(=O)Nc2ccc(Cl)cc23)c1` [Compound 5], the IC50 is reported as ≥ 500 nM. Molecule `CC(=O)Nc1ccc(CN2CCC3(CC2)C(=O)Nc2ccc(Cl)cc23)cc1` [Compound 6] has an IC50 of 50 to 500 nM. Molecule `CC(C)Oc1ccc(CN2CCC3(CC2)C(=O)Nc2ccc(Cl)cc23)cc1` [Compound 7] has an IC50 of 50 to 500 nM. In the case of `COc1ccc(CN2CCC3(CC2)C(=O)Nc2ccc(Cl)cc23)cc1F` [Compound 8], the IC50 is reported as 50 to 500 nM. For `CN(C)c1ncc(CN2CCC3(CC2)C(=O)Nc2ccc(Cl)cc23)cn1` [Compound 9], the IC50 was 50 to 500 nM. Molecule `CC(C)(CO)Nc1ncc(CN2CCC3(CC2)C(=O)Nc2ccc(Cl)cc23)cn1` [Compound 10] has an IC50 of 50 to 500 nM. Work on `O=C1Nc2ccc(Cl)cc2C12CCN(Cc1cn[nH]c1)CC2` [Compound 11] yielded an IC50 of 50 to 500 nM. With `CCO/N=C(\C)c1ccc(CN2CCC3(CC2)C(=O)Nc2ccc(Cl)cc23)cn1` [Compound 12] the IC50 was 50 to 500 nM. In the case of `Cn1cc(CN2CCC3(CC2)C(=O)Nc2ccc(Cl)cc23)cn1` [Compound 13], the IC50 is reported as 50 to 500 nM. `O=C1Nc2ccc(Cl)cc2C12CCN(Cc1cccc(OC(F)F)c1)CC2` [Compound 14] was tested, and the IC50 was ≥ 500 nM. `N#Cc1ccc(CN2CCC3(CC2)C(=O)Nc2ccc(Cl)cc23)c(F)c1` [Compound 15] was tested, and the IC50 was ≥ 500 nM. In the case of `O=C1Nc2ccc(Cl)cc2C12CCN(Cc1ccc(OC(F)F)cc1)CC2` [Compound 19], the IC50 is reported as ≥ 500 nM. With `N#Cc1cc(CN2CCC3(CC2)C(=O)Nc2ccc(Cl)cc23)ccn1` [Compound 20] the IC50 was ≥ 500 nM. For `CS(=O)(=O)CCn1cc(CN2CCC3(CC2)C(=O)Nc2ccc(F)cc23)cn1` [Compound 21], the IC50 was ≥ 500 nM. Molecule `CS(=O)(=O)CCn1cc(CN2CCC3(CC2)C(=O)Nc2ccc(Br)cc23)cn1` [Compound 22] has an IC50 of 50 to 500 nM. Molecule `Cc1ccc2c(c1)C1(CCN(Cc3cnn(CCS(C)(=O)=O)c3)CC1)C(=O)N2` [Compound 23] has an IC50 of 50 to 500 nM. With `Cc1ccc2c(c1)C1(CCN(Cc3cnn(CC4(C)COC4)c3)CC1)C(=O)N2` [Compound 24] the IC50 was ≥ 500 nM. In the case of `Cc1ccc2c(c1)C1(CCN(Cc3cnn(CC(=O)N(C)C)c3)CC1)C(=O)N2` [Compound 25], the IC50 is reported as ≥ 500 nM. `Cc1ccc2c(c1)C1(CCN(Cc3cnn(CCO)c3)CC1)C(=O)N2` [Compound 26] was tested, and the IC50 was ≥ 500 nM. `COCCn1cc(CN2CCC3(CC2)C(=O)Nc2ccc(C)cc23)cn1` [Compound 27] was tested, and the IC50 was ≥ 500 nM. For `CNC(=O)Cn1cc(CN2CCC3(CC2)C(=O)Nc2ccc(C)cc23)cn1` [Compound 28], the IC50 was ≥ 500 nM. For `CS(=O)(=O)CCn1cc(CN2CCC3(CC2)C(=O)Nc2c(CO)cc(Cl)cc23)cn1` [Compound 29], the IC50 was ≤ 50 nM. `CS(=O)(=O)CCn1cc(CN2CCC3(CC2)C(=O)Nc2ccc(C#N)cc23)cn1` [Compound 30] was tested, and the IC50 was ≥ 500 nM. For `CS(=O)(=O)CCn1cc(CN2CCC3(CC2)C(=O)Nc2ccc(CC(F)F)cc23)cn1` [Compound 31], the IC50 was ≥ 500 nM. `CS(=O)(=O)CCn1cc(CN2CCC3(CC2)C(=O)Nc2ccc(C(F)C(F)F)cc23)cn1` (stereo not drawn) [Compound 32] was tested, and the IC50 was ≥ 500 nM. Molecule `CS(=O)(=O)CCn1cc(CN2CCC3(CC2)C(=O)Nc2ccc(C(F)F)cc23)cn1` [Compound 33] has an IC50 of 50 to 500 nM. For `Cn1cc(CN2CCC3(CC2)C(=O)Nc2ccc(CC(F)F)cc23)cn1` [Compound 34], the IC50 was ≥ 500 nM. In the case of `O=C1Nc2ccc(CC(F)F)cc2C12CCN(Cc1cn[nH]c1)CC2` [Compound 35], the IC50 is reported as ≥ 500 nM. For `CS(=O)(=O)CCn1cc(CN2CCC3(CC2)C(=O)Nc2c(Cl)cc(Cl)cc23)cn1` [Compound 36], the IC50 was 50 to 500 nM. For `CN1C(=O)C2(CCN(Cc3cnn(CCS(C)(=O)=O)c3)CC2)c2cc(Cl)ccc21` [Compound 37, 5-chloro-1-methyl-1′-[[1-(2-methylsulfonylethyl)pyrazol-4-yl]methyl]spiro[indoline-3,4′-piperidine]-2-one], the IC50 was 50 to 500 nM. With `CN1C(=O)C2(CCN(Cc3cn[nH]c3)CC2)c2cc(Cl)ccc21` [Compound 38] the IC50 was 50 to 500 nM. For `CN1C(=O)C2(CCN(Cc3cnn(C)c3)CC2)c2cc(Cl)ccc21` [Compound 39], the IC50 was 50 to 500 nM.
